Source: patent US20160256449A1, “H3 RECEPTOR ANTAGONIST FOR USE IN THE TREATMENT OF ALZHEIMER'S DISEASE” (SANOFI, priority 2013, published 2016)

Experiments:
[1] = system: patients with mild to moderate Alzheimer's disease; experiment: clinical study, ADAS-Cog 11 items; type: in vivo, human; settings: mITT
Source text: “ADAS-Cog” as used herein, refers to a sensitive and standardized neuropsychological test battery to assess cognitive dysfunction characteristics of patients with AD including memory and orientation, language (aphasia), motor skills (praxis), attention and concentration. The original, standard version consists of 11 items. The total score of these 11-item scores ranges from 0-70 with higher scores indicating greater cognitive impairment. More recently, two additional tasks have been added in a new 13-item version of the scale proposed for patients with mild disease: Delayed Word Recall and Concentration/Distractibility.
A randomized, double-blind, parallel-group, placebo-controlled clinical trial was performed to study the effect on cognitive performance, safety, and tolerability of 2-(cyclohexylmethyl)-N-{2-[(2S)-1-methylpyrrolidin-2-yl]ethyl}-1,2,3,4-tetrahydroisoquinoline-7-sulfonamide difumarate monohydrate as adjunct treatment to donepezil. […]
Patients were randomized to receive 0.5 mg, 2 mg, or 5 mg of 2-(cyclohexylmethyl)-N-{2-[(2S)-1-methylpyrrolidin-2-yl]ethyl}-1,2,3,4-tetrahydroisoquinoline-7-sulfonamide difumarate monohydrate (measured in base form), or matching placebo once a day, with donepezil (5 mg or 10 mg in the form the patient took prior to enrollment), for 24 weeks, with or without food. […]

scopolamine treated mice = experiment: object recognition task in scopolamine-treated mice; type: in vivo
Source text: FIG. 2 illustrates the results of the effect of a co-treatment with 2-(cyclohexylmethyl)-N-{2-[(2S)-1-methylpyrrolidin-2-yl]ethyl}-1,2,3,4-tetrahydroisoquinoline-7-sulfonamide and donepezil on recognition memory deficit in scopolamine-treated mice using the object recognition task.
The results of this study are depicted in FIG. 2.

[2] = system: patients with mild to moderate Alzheimer's disease; experiment: clinical study, Neuropsychiatric Inventory (NPI) domain scores; type: in vivo, human
Method: A randomized, double-blind, parallel-group, placebo-controlled clinical trial was performed to study the effect on cognitive performance, safety, and tolerability of 2-(cyclohexylmethyl)-N-{2-[(2S)-1-methylpyrrolidin-2-yl]ethyl}-1,2,3,4-tetrahydroisoquinoline-7-sulfonamide difumarate monohydrate as adjunct treatment to donepezil.
More specifically, patients with mild to moderate Alzheimer's disease on stable donepezil therapy were randomized to receive doses of 0.5 mg, 2 mg, or 5 mg/day of 2-(cyclohexylmethyl)-N-{2-[(2S)-1-methylpyrrolidin-2-yl]ethyl}-1,2,3,4-tetrahydroisoquinoline-7-sulfonamide difumarate monohydrate or placebo for 24 weeks, with a 10 week follow-up period.
Patients were randomized to receive 0.5 mg, 2 mg, or 5 mg of 2-(cyclohexylmethyl)-N-{2-[(2S)-1-methylpyrrolidin-2-yl]ethyl}-1,2,3,4-tetrahydroisoquinoline-7-sulfonamide difumarate monohydrate (measured in base form), or matching placebo once a day, with donepezil (5 mg or 10 mg in the form the patient took prior to enrollment), for 24 weeks, with or without food.
[…] (NPI) domain scores of irritability/lability, anxiety, agitation/aggression, sleep and nighttime behavior disorders, aberrant motor behaviour, apathy/indifference, appetite/eating change, delusions, depression/dysphoria, disinhibition, elation/euphoria, and hallucinations.

## CN1CCC[C@H]1CCNS(=O)(=O)c1ccc2c(c1)CN(CC1CCCCC1)CC2 [API, 2-(cyclohexylmethyl)-N-{2-[(2S)-1-methylpyrrolidin-2-yl]ethyl}-1,2,3,4-tetrahydroisoquinoline-7-sulfonamide difumarate monohydrate]
[1]; 5 mg/day with donepezil, at follow-up
  ADAS-Cog score compared to placebo: statistically significant improvement
[1]; after 24 weeks of treatment, with donepezil
  mean differences in the ADAS-Cog change score: not significantly different
Scopolamine treated mice; 0.3 mg/kg alone
  activity of the amount given alone, episodic memory deficits: inactive
Scopolamine treated mice; 0.3 mg/kg with donepezil hydrochloride 1 mg/kg
  episodic memory deficits, co-treatment: reversed episodic memory deficits
[2]; 0.5 mg/day with donepezil
  NPI Abberant motor behavior, Ch from bl W12: −0.08
  NPI Abberant motor behavior, Ch from bl W24: 0.42
  NPI Agitation/Aggression, Ch from bl W12: 0.23
  NPI Agitation/Aggression, Ch from bl W24: 0.04
  NPI Anxiety, Ch from bl W12: 0.20
  NPI Anxiety, Ch from bl W24: 0.16
  NPI Apathy/Indifference, Ch from bl W12: −0.21
  NPI Apathy/Indifference, Ch from bl W24: 0.13
  NPI Appetite/Eating changes, Ch from bl W12: −0.58
  NPI Appetite/Eating changes, Ch from bl W24: −0.33
  NPI Delusions, Ch from bl W12: 0.31
  NPI Delusions, Ch from bl W24: 0.28
  NPI Depression/Dysphoria, Ch from bl W12: 0.00
  NPI Depression/Dysphoria, Ch from bl W24: 0.07
  NPI Disinhibition, Ch from bl W12: −0.13
  NPI Disinhibition, Ch from bl W24: −0.06
  NPI Elation/Euphoria, Ch from bl W12: 0.15
  NPI Elation/Euphoria, Ch from bl W24: 0.20
  NPI Hallucination, Ch from bl W12: 0.05
  NPI Hallucination, Ch from bl W24: −0.06
  NPI Irritability lability, Ch from bl W12: −0.07
  NPI Irritability lability, Ch from bl W24: 0.09
  NPI Sleep and nighttime behavior, Ch from bl W12: 0.30
  NPI Sleep and nighttime behavior, Ch from bl W24: −0.23
[2]; 2 mg/day with donepezil
  NPI Abberant motor behavior, Ch from bl W12: 0.25
  NPI Abberant motor behavior, Ch from bl W24: 0.56
  NPI Agitation/Aggression, Ch from bl W12: 0.48
  NPI Agitation/Aggression, Ch from bl W24: 0.68
  NPI Anxiety, Ch from bl W12: −0.03
  NPI Anxiety, Ch from bl W24: 0.15
  NPI Apathy/Indifference, Ch from bl W12: 0.26
  NPI Apathy/Indifference, Ch from bl W24: 0.92
  NPI Appetite/Eating changes, Ch from bl W12: −0.18
  NPI Appetite/Eating changes, Ch from bl W24: −0.02
  NPI Delusions, Ch from bl W12: −0.05
  NPI Delusions, Ch from bl W24: 0.21
  NPI Depression/Dysphoria, Ch from bl W12: 0.35
  NPI Depression/Dysphoria, Ch from bl W24: 0.12
  NPI Disinhibition, Ch from bl W12: 0.08
  NPI Disinhibition, Ch from bl W24: 0.03
  NPI Elation/Euphoria, Ch from bl W12: −0.06
  NPI Elation/Euphoria, Ch from bl W24: 0.07
  NPI Hallucination, Ch from bl W12: 0.02
  NPI Hallucination, Ch from bl W24: 0.02
  NPI Irritability lability, Ch from bl W12: 0.47
  NPI Irritability lability, Ch from bl W24: 0.63
  NPI Sleep and nighttime behavior, Ch from bl W12: 0.33
  NPI Sleep and nighttime behavior, Ch from bl W24: 0.19
[2]; 5 mg/day with donepezil
  NPI Abberant motor behavior, Ch from bl W12: −0.11
  NPI Abberant motor behavior, Ch from bl W24: −0.69
  NPI Agitation/Aggression, Ch from bl W12: −0.12
  NPI Agitation/Aggression, Ch from bl W24: 0.58
  NPI Anxiety, Ch from bl W12: 0.12
  NPI Anxiety, Ch from bl W24: 0.12
  NPI Apathy/Indifference, Ch from bl W12: 0.09
  NPI Apathy/Indifference, Ch from bl W24: 0.10
  NPI Appetite/Eating changes, Ch from bl W12: −0.17
  NPI Appetite/Eating changes, Ch from bl W24: 0.1
  NPI Delusions, Ch from bl W12: 0.00
  NPI Delusions, Ch from bl W24: 0.04
  NPI Depression/Dysphoria, Ch from bl W12: −0.07
  NPI Depression/Dysphoria, Ch from bl W24: 0.25
  NPI Disinhibition, Ch from bl W12: 0.00
  NPI Disinhibition, Ch from bl W24: 0.06
  NPI Elation/Euphoria, Ch from bl W12: 0.14
  NPI Elation/Euphoria, Ch from bl W24: 0.10
  NPI Hallucination, Ch from bl W12: −0.14
  NPI Hallucination, Ch from bl W24: −0.15
  NPI Irritability lability, Ch from bl W12: 0.03
  NPI Irritability lability, Ch from bl W24: 0.47
  NPI Sleep and nighttime behavior, Ch from bl W12: 0.08
  NPI Sleep and nighttime behavior, Ch from bl W24: 0.71
[2]; 0.5, 2, 5 mg/day with donepezil
  domains of the NPI, overall: No relevant modification
